Reference: US4504469A, “Vasotocin derivatives” (priority 1982, dated 1985)
Read-outs that look alike come from different tables or passages of the source. Where a SMILES comes first, the peptide text is derived from it. Bridges are numbered along the chain shown (N, C = ends). [ ]: non-standard residue; d: D form. Cit = NC(=O)NCCC[C@H](N)C(=O)O; Orn = NCCC[C@H](N)C(=O)O; Mpa = O=C(O)CCS

What was measured:
isolated rat uterus = format: cell-based
Procedure: The compounds according to the invention were investigated with regard to uterotonic potency on isolated rat uterus, using oxytocin as standard. The antagonistic properties of the compounds were also evaluated with the aid of this preparation. Also in vivo tests using oxytocin as the agonist were carried out, the results being compared with those obtained with Antocin.
Sprague Dawley rats (body weight approximately 250 g) in natural estrous were selected by vaginal smears. An approximately 20 mm long segment was cut from the middle of a uterine horn and mounted in an organ bath containing 10 ml of a modified Locke's solution of the following composition (mM:NaCl 153, KCl 5.63, CaCl2 0.541, NaHCO3 5.95 and glucose 2.78). The solution was gassed with 5% CO2 in oxygen at 30° C. The uterine contractions were allowed to stabilize for 30 min. Contractions were recorded isometrically at a resting tension of 1.5 g using Grass force transducers (Ft. 03). The antagonistic potency of the analogs was calculated as pA2 values (Rudinger, J. & Krejci, I. Experientia 18, (1962), 585-588). pA2 is a measure of the inhibitory effect of the peptide and was defined by Schild (Schild, H. O., British Journal of Pharmacology, 2, (1947), 189-206) as the negative logarithm of the molar concentration of an antagonist which reduces the effect of a dose of agonist to that of half the dose. The agonistic effects, if any, of the antagonists were investigated by adding to the bath containing the uterus preparation a varying amount of peptide corresponding at most to a concentration of 4 μg per ml.

Antidiuretic effect (AD) = assay: Antidiuretic effect (AD); parameters: unit not given here
[1] = Pressor effect (effect on the blood pressure); parameters: reference not given here
rat uterus in vivo = assay: In vivo inhibition of oxytocin-induced uterus contractions in rats, compared with Antocin; conditions: anaesthetized rats, oxytocin infusion i.v., antagonist 0.8-8.0 μg/100 g i.v.; Antocin given the value 1
Procedure: Sprague Dawley rats (250 g) in natural estrous were anaesthetized with Inactin (0.5 mg/100 g body weight i.p.). Myometrial activity was recorded by means of a catheter fixed in the uterine cavity and filled with modified Locke's solution. The catheter was connected to a Statham P23d transducer, and contractions were recorded on a Grass polygraph (model 7d). Oxytocin was infused intravenously (0.05 μg/min/100 g body weight). When a regular contraction pattern had been obtained, the antagonist (0.8-8.0 μg/100 g body weight) was administered intravenously in a volume of 0.2 ml. The recorded curve was integrated over 15 min intervals immediately before and after injection of the antagonist. The inhibition of the increase in the magnitude of the uterus contractions caused by oxytocin infusion were compared with the inhibition of the Antocin which was given the value 1.

[2] = isolated rat uterus, oxytocin as agonist, 30° C.

Compound | Type of inhibition of the oxytocin effect (isolated rat uterus) | Uterus in vitro antagonist pA2 (isolated rat uterus; [2]) | AD (antidiuretic effect) (Antidiuretic effect (AD)) | Pressor (effect on the blood pressure) [1] | Uterus in vivo, compared with Antocin (rat uterus in vivo) | Uterus in vitro antagonist pA2 (isolated rat uterus)
CCOc1ccc(C[C@H]2NC(=O)CCSSC[C@@H](C(=O)N3CCC[C@H]3C(=O)N[C@@H](CCCN)C(=O)NCC(N)=O)NC(=O)[C@H](CC(N)=O)NC(=O)[C@H]([C@@H](C)O)NC(=O)[C@H]([C@@H](C)CC)NC2=O)cc1 [Antocin, 1-desamino-(2-0-ethyltyrosine)-oxytocin, reference compound] ([Mpa][dY](Et)ITNCP[Orn]G-NH2; disulfide 1-6) | competitive inhibition | 7.2 | < 0.2 | < 0.1 | 1 | 
CC[C@H](C)[C@@H]1NC(=O)[C@@H](Cc2ccc(O)cc2)NC(=O)CCSSC[C@@H](C(=O)N2CCC[C@H]2C(=O)N[C@@H](CCCN)C(=O)NCC(N)=O)NC(=O)[C@H](CC(N)=O)NC(=O)[C@H](C(C)C)NC1=O [Example 13, 1-β-mercaptopropionic acid-2-D-tyrosine-4-valine-8-ornithine vasotocin] ([Mpa][dY]IVNCP[Orn]G-NH2; disulfide 1-6) |  |  | 1.2 | 0.6 | 4.4 | 8.2
CC[C@H](C)[C@@H]1NC(=O)[C@@H](Cc2c[nH]c3ccccc23)NC(=O)CCSSC[C@@H](C(=O)N2CCC[C@H]2C(=O)N[C@@H](CCCN)C(=O)NCC(N)=O)NC(=O)[C@H](CC(N)=O)NC(=O)[C@H]([C@@H](C)O)NC1=O [Example 15, 1-β-mercaptopropionic acid-2-D-tryptophane-4-treonine-8-ornithine vasotocin] ([Mpa][dW]ITNCP[Orn]G-NH2; disulfide 1-6) |  |  | 0.1 | 0.05 | 7.8 | 8.5
CCOc1ccc(C[C@H]2NC(=O)CCSSC[C@@H](C(=O)N3CCC[C@H]3C(=O)N[C@@H](CCCN)C(=O)NCC(N)=O)NC(=O)[C@H](CC(N)=O)NC(=O)[C@H](C(C)C)NC(=O)[C@H]([C@@H](C)CC)NC2=O)cc1 [Example 10, 1-β-mercaptopropionic acid-2-(4-ethoxy)-D-phenyl alanine-4-valine-8-ornithine vasotocin] ([Mpa][dY](Et)IVNCP[Orn]G-NH2; disulfide 1-6) |  |  |  |  |  | 7.9
CCOc1ccc(C[C@H]2NC(=O)CCSSC[C@@H](C(=O)N3CCC[C@H]3C(=O)N[C@H](CCCNC(=N)N)C(=O)NCC(N)=O)NC(=O)[C@H](CC(N)=O)NC(=O)[C@H](C(C)C)NC(=O)[C@H]([C@@H](C)CC)NC2=O)cc1 [Example 9, 1-β-mercaptopropionic acid-2-(4-ethoxy)-D-phenyl alanine-4-valine-8-D-arginine vasotocin] ([Mpa][dY](Et)IVNCP[dR]G-NH2; disulfide 1-6) |  |  |  |  |  | 8.6
CCOc1ccc(C[C@@H]2NC(=O)CCSSC[C@@H](C(=O)N3CCC[C@H]3C(=O)N[C@@H](CCCNC(=N)N)C(=O)NCC(N)=O)NC(=O)[C@H](CC(N)=O)NC(=O)[C@H](C(C)C)NC(=O)[C@H]([C@@H](C)CC)NC2=O)cc1 [Example 4, 1-β-mercaptopropionic acid-2-(4-ethoxy)-phenyl alanine-4-valine-8-arginine vasotocin] ([Mpa]Y(Et)IVNCPRG-NH2; disulfide 1-6) |  |  |  |  |  | 8.5
CCOc1ccc(C[C@H]2NC(=O)CCSSC[C@@H](C(=O)N3CCC[C@H]3C(=O)N[C@@H](CCCNC(=N)N)C(=O)NCC(N)=O)NC(=O)[C@H](CC(N)=O)NC(=O)[C@H](CCC(N)=O)NC(=O)[C@H]([C@@H](C)CC)NC2=O)cc1 [Example 2, 1-β-mercaptopropionic acid-2-(4-ethoxy)-D-phenyl alanine-8-arginine vasotocin] ([Mpa][dY](Et)IQNCPRG-NH2; disulfide 1-6) |  | 8.7 |  |  |  | 
CCOc1ccc(C[C@@H]2NC(=O)CCSSC[C@@H](C(=O)N3CCC[C@H]3C(=O)N[C@@H](CCCN)C(=O)NCC(N)=O)NC(=O)[C@H](CC(N)=O)NC(=O)[C@H](CCC(N)=O)NC(=O)[C@H]([C@@H](C)CC)NC2=O)cc1 [Example 1, 1-β-mercaptopropionic acid-2-(4-ethoxy)-phenyl alanine-8-ornithine-vasotocin] ([Mpa]Y(Et)IQNCP[Orn]G-NH2; disulfide 1-6) |  |  |  |  |  | 8.4
CCOc1ccc(C[C@H]2NC(=O)CCSSC[C@@H](C(=O)N3CCC[C@H]3C(=O)N[C@@H](CCCN)C(=O)NCC(N)=O)NC(=O)[C@H](CC(N)=O)NC(=O)[C@H]([C@@H](C)O)NC(=O)[C@H]([C@@H](C)CC)NC2=O)cc1 [Example 11, 1-β-mercaptopropionic acid-2-(4-ethoxy)-D-phenyl alanine-4-treonine-8-ornithine vasotocin] ([Mpa][dY](Et)ITNCP[Orn]G-NH2; disulfide 1-6) |  | 8.3 |  |  |  | 
CCOc1ccc(C[C@@H]2NC(=O)CCSSC[C@@H](C(=O)N3CCC[C@H]3C(=O)N[C@@H](CCCNC(N)=O)C(=O)NCC(N)=O)NC(=O)[C@H](CC(N)=O)NC(=O)[C@H](CCC(N)=O)NC(=O)[C@H]([C@@H](C)CC)NC2=O)cc1 [Example 3, 1-β-mercaptopropionic acid-2-(4-ethoxy)-phenyl alanine-8-citrullin vasotocin] ([Mpa]Y(Et)IQNCP[Cit]G-NH2; disulfide 1-6) |  |  |  |  |  | 8.5
CCOc1ccc(C[C@@H]2NC(=O)CCSSC[C@@H](C(=O)N3CCC[C@H]3C(=O)N[C@@H](CCCNC(=N)N)C(=O)NCC(N)=O)NC(=O)[C@H](CC(N)=O)NC(=O)[C@H]([C@@H](C)O)NC(=O)[C@H]([C@@H](C)CC)NC2=O)cc1 [Example 5, 1-β-mercaptopropionic acid-2-(4-ethoxy)-phenyl alanine-4-treonine-8-arginine vasotocin] ([Mpa]Y(Et)ITNCPRG-NH2; disulfide 1-6) |  | 8.0 |  |  |  | 
CC[C@H](C)[C@@H]1NC(=O)[C@@H](Cc2c[nH]c3ccccc23)NC(=O)CCSSC[C@@H](C(=O)N2CCC[C@H]2C(=O)N[C@H](CCCNC(=N)N)C(=O)NCC(N)=O)NC(=O)[C@H](CC(N)=O)NC(=O)[C@H]([C@@H](C)O)NC1=O [Example 12, 1-β-mercaptopropionic acid-2-D-tryptophane-4-treonine-8-D-arginine vasotocin] ([Mpa][dW]ITNCP[dR]G-NH2; disulfide 1-6) |  | 8.0 | 0.1 | 0.12 | 6.3 | 
1-β-mercaptopropionic acid-2-(4-ethoxy)-D-phenyl alanine-8-arginine vasotocin [Example 7] |  | 8.4 | 37.9 | 2.5 | 2 | 
CC[C@H](C)[C@@H]1NC(=O)[C@@H](Cc2c[nH]c3ccccc23)NC(=O)CCSSC[C@@H](C(=O)N2CCC[C@H]2C(=O)N[C@@H](CCCN)C(=O)NCC(N)=O)NC(=O)[C@H](CC(N)=O)NC(=O)[C@H](C(C)C)NC1=O [Example 14, 1-β-mercaptopropionic acid-2-D-tryptophane-4-valine-8-ornithine vasotocin] ([Mpa][dW]IVNCP[Orn]G-NH2; disulfide 1-6) |  |  | 0.03 | 0.03 | 17.9 | 7.9
CCOc1ccc(C[C@@H]2NC(=O)CCSSC[C@@H](C(=O)N3CCC[C@H]3C(=O)N[C@@H](CCCN)C(=O)NCC(N)=O)NC(=O)[C@H](CC(N)=O)NC(=O)[C@H](C(C)C)NC(=O)[C@H]([C@@H](C)CC)NC2=O)cc1 [Example 6, 1-β-mercaptopropionic acid-2-(4-ethoxy)-phenyl alanine-4-valine-8-ornithine vasotocin] ([Mpa]Y(Et)IVNCP[Orn]G-NH2; disulfide 1-6) |  |  |  |  |  | 7.6
